Article PMC4607367, “Gedunin and Azadiradione: Human Pancreatic Alpha-Amylase Inhibiting Limonoids from Neem (Azadirachta indica) as Anti-Diabetic Agents” (PLoS ONE, 2015)
Entries after “also recorded” stand apart in the source; their conditions may differ.

Key:
[1] = biological target: HPA; parameters: method as in PMID 15736945; details: ref [60], cited from earlier work
[2] = biological target: T1, Porcine pancreatic α-amylase (PPA) (Sus scrofa, UniProt P00690); experiment: Porcine pancreatic α-amylase inhibition assay, chromogenic DNSA method (primary screening); format: biochemical; details: for PPA inhibition (result in words): inhibitors 13.8–214.3 μM; for IC50: starch 1% w/v, pH 6.9, 37°C
T1 construct: purchased SRL, Mumbai, India
T1 sequence (P00690 16-511): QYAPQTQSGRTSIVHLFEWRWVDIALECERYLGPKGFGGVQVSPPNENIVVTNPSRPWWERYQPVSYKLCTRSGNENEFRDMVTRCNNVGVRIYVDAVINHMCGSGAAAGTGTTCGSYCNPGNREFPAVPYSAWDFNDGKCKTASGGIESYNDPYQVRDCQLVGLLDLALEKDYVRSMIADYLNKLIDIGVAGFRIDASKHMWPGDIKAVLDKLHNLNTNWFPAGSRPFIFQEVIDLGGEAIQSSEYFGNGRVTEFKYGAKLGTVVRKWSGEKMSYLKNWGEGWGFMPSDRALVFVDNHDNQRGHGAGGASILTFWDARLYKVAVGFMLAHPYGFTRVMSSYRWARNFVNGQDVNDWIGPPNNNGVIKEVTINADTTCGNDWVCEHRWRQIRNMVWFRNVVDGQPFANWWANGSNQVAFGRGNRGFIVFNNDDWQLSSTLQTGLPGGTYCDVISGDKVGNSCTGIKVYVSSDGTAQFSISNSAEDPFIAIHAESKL
Experimental: The inhibition assay was performed using the chromogenic DNSA method. PPA was used for preliminary screening of α-amylase inhibitors. […] Moreover a high degree gene sequence similarity (~ 90%) exists between human salivary α-amylase (HSA) and PPA as reported by (Buisson et al 1987). Brayer et al (1995) have reported 97% primary sequence similarity between human salivary and human pancreatic α-amylases and a 70% structural similarity between PPA and HPA [11]. Thus, a high degree of similarity between PPA and HPA allows us to use it as the enzyme for screening inhibitors.
In brief, the total assay mixture consisting of 0.02 M sodium phosphate buffer, pH6.9, (containing 6 mM NaCl), 0.2–0.25 U of PPA and inhibitors (13.8–214.3 μM) in DMSO was incubated at 37°C for 10 min. After pre-incubation, the substrate starch (1%, w/v) solution was added to the reaction mixture and further incubated for 15 min. The control PPA (0.21 U) without any inhibitor represented 100% enzyme activity. One unit of enzyme activity is defined as the amount of enzyme required to release one micromole of maltose from starch/maltopentaose per min under the assay conditions. The other quantifiers calculated were: % Relative enzyme activity = (enzyme activity of test/enzyme activity of control)*100. % inhibition = (100 − % relative enzyme activity).
The IC50 values were determined from plots of percent inhibition versus inhibitor concentration and calculated by logarithmic regression analysis. To eliminate the absorbance produced by the compound, appropriate controls were included. The known PPA/HPA inhibitor acarbose was used as a positive control at a concentration range of 10–50 μM.

[3] = test system: PPA; parameters: method as in PMID 22975503; details: ref [25],[26], cited from earlier work; for IC50: value in brackets
[4] = biological target: T2, secreted pancreatic α-amylase of AR42J cells (Rattus norvegicus, UniProt P00689); experiment: Bioactivity: inhibition of secreted pancreatic α-amylase in dexamethasone-induced AR42J cells, incl. starch load test (DNSA); format: cell-based; details: for Amylase inhibition at the cytotoxic IC50 concentration: 24 h, at 11.1, 13.4 and 4.1 μM respectively
T2 construct: host or cells: AR42J rat pancreatic acinar cells, induced with 10 nM dexamethasone
T2 sequence (P00689 16-508): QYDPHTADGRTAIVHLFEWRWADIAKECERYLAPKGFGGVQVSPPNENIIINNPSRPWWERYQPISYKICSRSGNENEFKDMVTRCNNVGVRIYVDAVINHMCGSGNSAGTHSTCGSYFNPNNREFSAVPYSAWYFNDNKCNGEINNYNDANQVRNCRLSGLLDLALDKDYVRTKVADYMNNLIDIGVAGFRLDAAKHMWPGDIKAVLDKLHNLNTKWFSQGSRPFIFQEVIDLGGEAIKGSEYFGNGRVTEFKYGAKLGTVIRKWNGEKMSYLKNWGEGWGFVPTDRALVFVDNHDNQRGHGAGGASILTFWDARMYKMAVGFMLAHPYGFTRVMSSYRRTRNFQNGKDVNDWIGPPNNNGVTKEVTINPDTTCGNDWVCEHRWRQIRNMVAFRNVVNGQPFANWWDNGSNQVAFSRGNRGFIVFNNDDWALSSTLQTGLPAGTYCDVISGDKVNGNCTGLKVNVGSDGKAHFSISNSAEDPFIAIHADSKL
From the text: Appropriate medium and DMSO controls were simultaneously set up.

[5] = Cytotoxicity in AR42J cell line (MTT); details: rat, AR42J pancreatic acinar cells
Experimental: (§1) Cells were seeded at 2×10^4 cells well^-1 onto 96 wells culture dish. […] Appropriate medium and DMSO controls were simultaneously set up. […] At the end of 24 h incubation period the culture media was removed from the samples and fresh culture media (100 μl) containing 20 μl of MTT tetrazolium bromide (5 mg ml^-1) added and incubated for 3 h at 37°C. Metabolically active cells reduce MTT to insoluble purple formazan dye crystals, which were dissolved by addition of 300 μl DMSO solution at the end of the incubation period and quantitated at 550 nm [34].

[6] = test system: AR42J rat pancreatic acinar cells; experiment: Cytotoxicity in AR42J cell line (MTT); details: AR42J
Experimental: as §1

[7] = biological target: T3, Human pancreatic α-amylase (HPA) (Homo sapiens, UniProt P04746); experiment: Ligand binding to HPA by fluorescence quenching titration, thermodynamic parameters
T3 construct: purchased Sigma Aldrich, USA
T3 sequence (P04746 16-511): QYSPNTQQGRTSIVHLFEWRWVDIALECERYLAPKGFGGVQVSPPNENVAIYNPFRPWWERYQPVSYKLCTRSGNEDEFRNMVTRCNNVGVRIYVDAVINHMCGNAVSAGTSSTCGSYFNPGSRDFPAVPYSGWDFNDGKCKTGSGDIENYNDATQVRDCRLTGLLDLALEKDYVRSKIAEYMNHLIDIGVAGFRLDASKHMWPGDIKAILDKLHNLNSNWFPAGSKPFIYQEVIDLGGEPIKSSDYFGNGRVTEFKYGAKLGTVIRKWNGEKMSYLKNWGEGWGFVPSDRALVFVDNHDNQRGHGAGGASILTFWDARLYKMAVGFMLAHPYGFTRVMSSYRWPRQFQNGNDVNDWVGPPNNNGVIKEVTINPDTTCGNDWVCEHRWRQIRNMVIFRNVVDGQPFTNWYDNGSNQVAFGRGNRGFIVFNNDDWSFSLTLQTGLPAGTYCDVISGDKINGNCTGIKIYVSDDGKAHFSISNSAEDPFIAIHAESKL
Experimental: Ligand binding studies using fluorescence measurements of HPA were carried as described in our earlier report. […] Non-linear and linear regression analyses were used to analyze the data.
The thermodynamic parameters, association constants (K a), dissociation constant (K d) and Gibbs free energy (ΔG°) of binding for azadiradione and gedunin were determined at various temperatures 25°C to 60°C by fluorescence quenching studies.

[8] = biological target: T3, Human pancreatic α-amylase (HPA); experiment: Human pancreatic α-amylase inhibition and stoichiometry (DNSA); format: biochemical
From the text: The control HPA (0.25 U) without inhibitors represented 100% enzyme activity.

[9] = biological target: T3, Human pancreatic α-amylase (HPA); experiment: HPA inhibition kinetics (Michaelis-Menten, Lineweaver-Burk, secondary plots); format: biochemical
Experimental: The mode of inhibition of HPA by the lead inhibitors azadiradione and gedunin were determined using Michaelis-Menton and Lineweaver-Burk equations. Starch (1–5mg ml^-1) and maltopentaose (0.05–0.4mM) were incubated with inhibitors-HPA for 10 and 2.5 min, respectively and the residual enzyme activity determined by DNSA method for starch and Nelson-Somogyi’s method for maltopentaose.The inhibitor constants(K i) were determined on the basis of mode of inhibition.

[10] = linear van't Hoff plot, 298–333 K

C[C@H]1O[C@H](O[C@H]2[C@H](O)[C@@H](O)[C@@H](O[C@H]3[C@H](O)[C@@H](O)C(O)O[C@@H]3CO)O[C@@H]2CO)[C@H](O)[C@@H](O)[C@@H]1N[C@H]1C=C(CO)[C@@H](O)[C@H](O)[C@H]1O (some centres unmarked) [Acarbose, acarbose]
Ki ([1]; 2-chloro-4-nitrophenyl-α-maltotrioside as substrate): 22 µM
Mode of HPA inhibition [1]: noncompetitive

C/C=C(\C)C(=O)O[C@H]1C[C@@H](OC(C)=O)[C@@]2(C(=O)OC)CO[C@H]3[C@@H](O)[C@@](C)([C@]45O[C@@]4(C)[C@@H]4C[C@H]5O[C@@H]5OC=C[C@@]54O)[C@H]4[C@]1(CO[C@]4(O)C(=O)OC)[C@@H]32 [azadirachtin A]
PPA inhibition (result in words) [2]: No inhibition; also recorded: no bioactivity

CC=C(C)C(=O)OC1CC(O)C23COC(C(=O)OC)C2C(C)(C24OC2(C)C2CC4OC4OC=CC42O)C(O)C2OCC1(C(=O)OC)C23 (centres unmarked) [azadirachtin B]
PPA inhibition (result in words) [2]: No inhibition; also recorded: no bioactivity

CC(=O)O[C@@H]1C[C@H](OC(=O)C=C(C)C)[C@@]2(C)[C@H]3[C@@H](OC[C@]13C)[C@@H](O)[C@@]1(C)C3=CC[C@@H]([C@@H]4COC(=O)C4)[C@]3(C)CC[C@@H]12 [azadirachtolide]
IC50 with PPA [3]: 55.8 µg/mL
IC50 [3]: 94.1 µM

CC(=O)O[C@@H]1C[C@H]2C(C)(C)C(=O)C=C[C@]2(C)[C@H]2CC[C@]3(C)C(=CC[C@H]3c3ccoc3)[C@@]21C [azadirone]
PPA inhibition (result in words) [2]: No inhibition; also recorded: no activity was observed

CC(=O)O[C@@H]1C[C@H]2C(C)(C)C(=O)C=C[C@]2(C)[C@H]2CC[C@@]3(C)[C@H](c4ccoc4)C(=O)[C@H]4O[C@]43[C@@]21C [epoxyazadiradione]
Amylase inhibition at the cytotoxic IC50 concentration ([4]; AR42J): 53.2%
inhibition at 1.7 µM ([4]; AR-42J, read-out: Pancreatic (secreted) α-amylase inhibition): 31.8%
IC50 [2]: 100 µM
IC50 at 24 h [5]: 4.1 µM
Cell death ([6]; 1.7 μM): 2.7%

CC(=O)O[C@@H]1C[C@H]2C(C)(C)C(=O)C=C[C@]2(C)[C@H]2CC[C@@]3(C)[C@H](c4ccoc4)OC(=O)[C@H]4O[C@]43[C@@]21C [gedunin]
-ΔG° ([7]; 298 K): 21.16 k J mol^-1
K a ([7]; 298 K): 5100 M⁻¹
Kd ([7]; 298 K): 200 ± 9 µM
-ΔG° ([7]; 303 K): 20.57 k J mol^-1
K a ([7]; 303 K): 3500 M⁻¹
Kd ([7]; 303 K): 300 ± 3 µM
-ΔG° ([7]; 308 K): 16.4 k J mol^-1
K a ([7]; 308 K): 600 M⁻¹
Kd ([7]; 308 K): 1600 ± 1 µM
-ΔG° ([7]; 313 K): 12.4 k J mol^-1
K a ([7]; 313 K): 120 M⁻¹
Kd ([7]; 313 K): 8300 ± 50 µM
-ΔG° ([7]; 323K): 11.8 k J mol^-1
K a ([7]; 323K): 80 M⁻¹
Kd ([7]; 323K): 12200 ± 600 µM
-ΔG° ([7]; 333K): 7.4 k J mol^-1
K a ([7]; 333K): 10 M⁻¹
Kd ([7]; 333K): 67200 ± 800 µM
Maximal quenching of intrinsic HPA fluorescence ([7]; 350 nm, azadiradione 3.9–118 μM, gedunin 2.0–51.86 μM): 19%
Maximum ΔG° of binding ([7]; calculated from binding constants, maximal affinity at 298 K): -5.057 kcal/mol
Enthalpy (ΔHvH) [7, 10]: -33.44 kcal/mol
Entropy (-ΔS) [7, 10]: 397.84 J mol^-1K^-1
Secreted amylase inhibition in starch load test ([4]; AR42J, 0.5% (w/v) starch, up to two hours): 31.7%
Amylase inhibition at the cytotoxic IC50 concentration ([4]; AR42J): 69.2%
inhibition at 3.3 µM ([4]; AR-42J, AR42J, 3.3 μM): 53.4%
IC50 [2]: 72.2 µM
Stoichiometry of HPA inactivation ([8]; percentage inhibition versus molar ratio of HPA and inhibitor, HPA 14.85 μM): 0.68
IC50 ([8]; starch substrate, sigmoidal fit): 68.4 µM
IC50 at 24 h [5]: 13.4 µM
Cell death ([6]; 3.3 μM): 8.6%
Cell morphology versus controls ([6]; azadiradione 3.5 μM, gedunin 3.3 μM (Fig 3)): no morphological change
Ki ([9]; maltopentaose as substrate, secondary plots): 18.6 µM
Apparent K i ′ ([9]; starch as substrate, secondary plots): 37.4 µM
Mode of HPA inhibition ([9]; substrates starch and maltopentaose, Lineweaver-Burk): mixed

CC(C)=CC(=O)O[C@H]1C[C@@H](O)[C@@]2(C)CO[C@H]3[C@@H](O)[C@@]4(C)C5=CC[C@@H](c6ccoc6)[C@]5(C)CC[C@@H]4[C@]1(C)[C@@H]32 [meliacinolin]
IC50 with PPA [3]: 46.74 µg/mL
IC50 [3]: 91.6 µM

COC(=O)C[C@H]1[C@]2(C)C3=C(C)[C@H](c4ccoc4)C[C@H]3O[C@@H]2[C@H](OC(C)=O)[C@@H]2[C@]1(C)C(=O)C=C[C@@]2(C)C(=O)OC [nimbin]
PPA inhibition (result in words) [2]: No inhibition; also recorded: no bioactivity

C/C=C(/C)C(=O)O[C@H]1C[C@@H](OC(C)=O)[C@@]2(C)CO[C@H]3[C@H]4O[C@@H]5C[C@@H](c6ccoc6)C(C)=C5[C@@]4(C)[C@H](CC(=O)OC)[C@]1(C)[C@@H]32 [salannin]
PPA inhibition (result in words) [2]: No inhibition; also recorded: no bioactivity
